Measurements from patent US20070219186A1, “Pyrazolo[1,5-A]pyrimidine derivatives and methods of use thereof” (priority 2006, published 2007).
Read-outs that look alike come from different tables or passages of the source.

Molecular target: T1, human B-Raf (Homo sapiens, UniProt P15056)
T1 construct: Flag; GST; made in house; host or cells: Sf9 insect cells (B-Raf); E. coli (MEK1-GST)
Assay: B-Raf Kinase to MEK1 ELISA
Type: biochemical
Conditions: for IC50: median, cpd concentrations from 10 μM to 30 nM in half log dilutions, read-out: Median IC50; for inhibition at 10 µM: read-out: % Inhib./10 uM
Text: TITLE: B-Raf Kinase to MEK1 ELISA
PURPOSE: To discover B-Raf Kinase inhibitors that can inhibit growth of tumor cells which contain oncogenic forms of Receptor Tyrosine Kinases or K-Ras, or B-Raf kinase.
Reagents: Flag/GST-tagged recombinant human B-Raf produced in Sf9 insect cells, human non-active Mek-1-GST (recombinant protein produced in E. coli); and a phospho-MEK1 specific poly-clonal Ab from Cell Signaling Technology (cat. #9121).
B-Raf1 Kinase Assay Procedure:
B-Raf-1 is used to phosphorylate GST-MEK1. MEK1 phosphorylation is measured by a phospho-specific antibody (from Cell Signaling Technology, cat. #9121) that detects phosphorylation of two serine residues at positions 217 and 221 on MEK1.
B-Raf Assay Stock Solutions:
1. Assay Dilution Buffer (ADB): 20 mM MOPS, pH 7.2, 25 mM β-glycerol phosphate, 5 mM EGTA, 1 mM sodium orthovanadate, 1 mM dithiothreitol.
2. Magnesium/ATP Cocktail: 200 μM cold ATP and 40 mM magnesium chloride in ADB.
3. Active Kinase: Active B-Raf: used at ˜20 ng per assay point.
4. Non-active GST-MEK1: Use at 100 nM (50 nM final).
6. Anti-GST Ab (Pharmacia)
7. Anti-rabbit Ab/Europium conjugate (Wallac)
1. Add 25 μl of ADB containing B-Raf and Mek per assay (i.e. per well of a 96 well plate)
2. Add 25 μl of 0.2 mM ATP and 40 mM magnesium chloride in ADB.
3. Incubate for 60 minutes at RT in a shaking incubator.
4. Transfer this mixture to an anti-GST Ab coated 96 well plate (Nunc Immunosorb plates coated o/n with a-GST.
5. Incubate for 60 minutes at 30° C. in a shaking incubator
6. Wash 3× with TBST, add Anti-Phospho MEK1 (1:1000)
7. Incubate for 60 minutes at 30° C. in a shaking incubator
8. Wash 3× with TBST, add Anti-rabbit Ab/Europium conjugate (Wallac) (1:500)
9. Incubate for 60 minutes at 30° C. in a shaking incubator
10. Add 100 ul of Wallac Delfia Enhancement Solution and shake for 10 minutes.
11. Read plates in Wallac Victor model Plate Reader.
12. Collect data analyze in Excel for single point and IC50 determinations.
Typically Raf-1 assay is run at cpd concentrations from 10 μM to 30 nM in half log dilutions. (% inhibition is determined for each cpd concentration)

T1 sequence (P15056 whole entry): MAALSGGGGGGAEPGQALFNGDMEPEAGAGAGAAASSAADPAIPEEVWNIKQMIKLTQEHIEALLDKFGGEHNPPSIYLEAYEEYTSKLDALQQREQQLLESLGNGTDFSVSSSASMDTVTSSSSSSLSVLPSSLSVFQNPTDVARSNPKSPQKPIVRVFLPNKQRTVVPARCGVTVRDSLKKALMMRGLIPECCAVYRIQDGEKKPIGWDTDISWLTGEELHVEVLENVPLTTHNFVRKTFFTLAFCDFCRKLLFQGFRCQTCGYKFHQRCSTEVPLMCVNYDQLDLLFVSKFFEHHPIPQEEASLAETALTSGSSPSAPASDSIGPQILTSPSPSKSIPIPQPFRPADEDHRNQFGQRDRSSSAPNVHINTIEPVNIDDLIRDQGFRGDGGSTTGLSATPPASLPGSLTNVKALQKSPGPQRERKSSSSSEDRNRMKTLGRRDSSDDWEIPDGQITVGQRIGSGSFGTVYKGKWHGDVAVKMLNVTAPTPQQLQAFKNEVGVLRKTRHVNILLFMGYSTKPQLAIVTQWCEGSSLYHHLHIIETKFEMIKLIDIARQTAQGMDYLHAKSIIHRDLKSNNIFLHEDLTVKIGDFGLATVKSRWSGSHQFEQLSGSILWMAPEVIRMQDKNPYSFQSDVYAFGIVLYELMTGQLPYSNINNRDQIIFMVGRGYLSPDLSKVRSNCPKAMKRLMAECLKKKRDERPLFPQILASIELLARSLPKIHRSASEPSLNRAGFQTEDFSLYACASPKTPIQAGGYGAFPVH

Row | Compound | IC50 [µM] | % Inhib./10 uM (single point assay, 10 uM) [%] | inhibition at 10 µM [%] | inhibition at 10 µM (single point assay, 10 uM) [%]
1 | CCOC(=O)c1cnn2c(-c3cccc(NC(=O)c4ccccc4)c3)ccnc12 [Example 3, Pyrazolo[1,5-a]pyrimidine-3-carboxylic acid, 7-[3-(benzoylamino)phenyl]-, ethyl ester] | > 20 | – | 4 | –
2 | CCOC(=O)c1cnn2c(-c3cccc(NC(=O)c4cc5ccccc5s4)c3)ccnc12 [Example 5, ethyl 7-{3-[(1-benzothien-2-ylcarbonyl)amino]phenyl}pyrazolo[1,5-a]pyrimidine-3-carboxylate] | > 20 | – | 24 | –
3 | CCOC(=O)c1cnn2c(-c3cccc(NC(=O)c4ccc(Cl)cc4)c3)ccnc12 [Example 6, ethyl 7-{3-[(4-chlorobenzoyl)amino]phenyl}pyrazolo[1,5-a]pyrimidine-3-carboxylate] | > 20 | – | 38 | –
4 | CCOC(=O)c1cnn2c(-c3cccc(NC(=O)c4ccc(C(F)(F)F)c(F)c4)c3)ccnc12 [Example 9, ethyl 7-(3-{[3-fluoro-4-(trifluoromethyl)benzoyl]amino}phenyl)pyrazolo[1,5-a]pyrimidine-3-carboxylate] | > 20 | – | 20 | –
5 | CCOC(=O)c1cnn2c(-c3cccc(NS(=O)(=O)c4cccc(C(F)(F)F)c4)c3)ccnc12 [Example 12, ethyl 7-[3-({[3-(trifluoromethyl)phenyl]sulfonyl}amino)phenyl]pyrazolo[1,5-a]pyrimidine-3-carboxylate] | > 20 | – | 7 | –
6 | CCOC(=O)c1cnn2c(-c3cccc(NC(=O)c4cccc(C#N)c4)c3)ccnc12 [Example 13, ethyl 7-{3-[(3-cyanobenzoyl)amino]phenyl}pyrazolo[1,5-a]pyrimidine-3-carboxylate] | > 20 | – | 27 | –
7 | CCOC(=O)c1cnn2c(-c3cccc(NC(=O)Nc4ccc(C(C)=O)cc4)c3)ccnc12 [Example 19, ethyl 7-[3-({[(4-acetylphenyl)amino]carbonyl}amino)phenyl]pyrazolo[1,5-a]pyrimidine-3-carboxylate] | > 10 | – | 0 | –
8 | CCOC(=O)c1cnn2c(-c3cccc(NC(=O)Nc4ccc(C(C)C)cc4)c3)ccnc12 [Example 20, ethyl 7-[3-({[(4-isopropylphenyl)amino]carbonyl}amino)phenyl]pyrazolo[1,5-a]pyrimidine-3-carboxylate] | > 10 | – | 30 | –
9 | CCOC(=O)c1cnn2c(-c3cccc(NC(=O)Nc4c(C)cc(C)cc4C)c3)ccnc12 [Example 22, ethyl 7-(3-{[(mesitylamino)carbonyl]amino}phenyl)pyrazolo[1,5-a]pyrimidine-3-carboxylate] | > 10 | – | 34 | –
10 | CCOC(=O)c1cnn2c(-c3cccc(NC(=O)Nc4ccc(OC(F)(F)F)cc4)c3)ccnc12 [Example 23, ethyl 7-{3-[({[4-(trifluoromethoxy)phenyl]amino}carbonyl)amino]phenyl}pyrazolo[1,5-a]pyrimidine-3-carboxylate] | > 10 | – | 20 | –
11 | CCOC(=O)c1cnn2c(-c3cccc(NC(=O)Nc4ccc(SC(F)(F)F)cc4)c3)ccnc12 [Example 24, ethyl 7-(3-{[({4-[(trifluoromethyl)thio]phenyl}amino)carbonyl]amino}phenyl)pyrazolo[1,5-a]pyrimidine-3-carboxylate] | > 10 | – | 11 | –

The next lines start with the values.

Row | IC50 [µM] | % Inhib./10 uM (single point assay, 10 uM) [%] | inhibition at 10 µM [%] | inhibition at 10 µM (single point assay, 10 uM) [%] | Compound
12 | > 10 | 48 | – | – | 4-[7-(3-{[3-(trifluoromethyl)benzoyl]amino}phenyl)pyrazolo[1,5-a]pyrimidin-2-yl]benzyl acetate [Example 142]
13 | 0.72 | – | 66 | – | CCOC(=O)c1cnn2c(-c3cccc(NC(=O)c4cccc(C(F)(F)F)c4)c3)ccnc12 [Example 1, Pyrazolo[1,5-a]pyrimidine-3-carboxylic acid, 7-[3-[[3-(trifluoromethyl)-benzoyl]amino]phenyl]-, ethyl ester]
14 | 17 | – | 84 | – | CCOC(=O)c1cnn2c(-c3cccc(NC(=O)c4ccc(F)c(C(F)(F)F)c4)c3)ccnc12 [Example 2, ethyl 7-(3-{[4-fluoro-3-(trifluoromethyl)benzoyl]amino}phenyl)pyrazolo[1,5-a]pyrimidine-3-carboxylate]
15 | > 10 | – | 4 | – | CCOC(=O)c1cnn2c(-c3cccc(NC(=O)c4cccc(Br)c4)c3)ccnc12 [Example 4, ethyl 7-{3-[(3-bromobenzoyl)amino]phenyl}pyrazolo[1,5-a]pyrimidine-3-carboxylate]
16 | 1.43 | – | – | 67 | CCOC(=O)c1cnn2c(-c3cccc(NC(=O)c4cccc(OC(F)(F)F)c4)c3)ccnc12 [Example 7, ethyl 7-(3-{[3-(trifluoromethoxy)benzoyl]amino}phenyl)pyrazolo[1,5-a]pyrimidine-3-carboxylate]
17 | > 10 | – | – | 28 | CCOC(=O)c1cnn2c(-c3cccc(NC(=O)c4cccc(OC)c4)c3)ccnc12 [Example 8, ethyl 7-{3-[(3-methoxybenzoyl)amino]phenyl}pyrazolo[1,5-a]pyrimidine-3-carboxylate]
18 | > 10 | – | 27 | – | CCOC(=O)c1cnn2c(-c3cccc(NC(=O)c4ccc(C(F)(F)F)cc4)c3)ccnc12 [Example 10, ethyl 7-(3-{[4-(trifluoromethyl)benzoyl]amino}phenyl)pyrazolo[1,5-a]pyrimidine-3-carboxylate]
19 | 0.3 | – | – | 93 | CCOC(=O)c1cnn2c(-c3cccc(NC(=O)Nc4ccc(Cl)c(C(F)(F)F)c4)c3)ccnc12 [Example 11, ethyl 7-{3-[({[4-chloro-3-(trifluoromethyl)phenyl]amino}carbonyl)amino]phenyl}pyrazolo[1,5-a]pyrimidine-3-carboxylate]
20 | > 10 | – | 0 | – | CCOC(=O)c1cnn2c(-c3cccc(NC(=O)Nc4ccc(Cl)cc4Cl)c3)ccnc12 [Example 14, ethyl 7-[3-({[(2,4-dichlorophenyl)amino]carbonyl}amino)phenyl]pyrazolo[1,5-a]pyrimidine-3-carboxylate]
21 | 3.78 | – | 31 | – | CCOC(=O)c1cnn2c(-c3cccc(NC(=O)Nc4cc(C(F)(F)F)cc(C(F)(F)F)c4)c3)ccnc12 [Example 16, ethyl 7-{3-[({[3,5-bis(trifluoromethyl)phenyl]amino}carbonyl)amino]phenyl}pyrazolo[1,5-a]pyrimidine-3-carboxylate]
22 | > 10 | – | 30 | – | CCOC(=O)c1cnn2c(-c3cccc(NC(=O)Nc4cc(Cl)cc(Cl)c4)c3)ccnc12 [Example 17, ethyl 7-[3-({[(3,5-dichlorophenyl)amino]carbonyl}amino)phenyl]pyrazolo[1,5-a]pyrimidine-3-carboxylate]
23 | > 10 | – | 0 | – | CCOC(=O)c1cnn2c(-c3cccc(NC(=O)Nc4ccc(SC)cc4)c3)ccnc12 [Example 18, ethyl 7-{3-[({[4-(methylthio)phenyl]amino}carbonyl)amino]phenyl}pyrazolo[1,5-a]pyrimidine-3-carboxylate]
24 | 2.3 | – | 58 | – | CCOC(=O)c1cnn2c(-c3cccc(NC(=O)Nc4ccc5ccccc5c4)c3)ccnc12 [Example 21, ethyl 7-(3-{[(2-naphthylamino)carbonyl]amino}phenyl)pyrazolo[1,5-a]pyrimidine-3-carboxylate]
